Experimental data taken from US7488738B2, “Aminophenoxyacetic acid derivatives and pharmaceutical composition containing thereof” (Asubio Pharma Co., Ltd., priority 1998, dated 2009).

The compounds below were run on cells of cerebral cortex (assay: Cytoprotective effect against glutamate induced cell death (MTT)). Conditions: compound 1 μM added 24 h before 1 mM glutamate, fetal rat cerebral cortex cells, control group = 100%.
Format: cell-based, rats of Wister strain
Description: Biological Test 1: Cytoprotective Effect Against Glutamate Induced Cell Death
In accordance with the method of M. P. Mattoson [M. P. Mattoson, Brain Res. Rev., 13, 179 (1988)], brain of 18-days fetus rats of Wister strain were taken out. Then, cells of cerebral cortex (4×10^5 cells/ml) were seeded on poly-L-lysine coated 96 wells flat bottom plate (Sumitomo Bakelite Co., Ltd.) in concentration of 4×10^4 cells/each well. After 48 hours of incubation, 1 μM of test compounds were added, then after further 24 hours, 1 mM of glutamate were further added for inducing the cell injury. 12 hours after adding glutamate, MTT [3-(4,5-dimethylthiazol)-2,5-diphenyltetrazolium bromide] was added and incubated for 6 hours.
After incubation, 200 μl of dimethy sulfoxide was added to each wells, and the amounts of reduced MTT were calorimetrically analyzed by Micro ELISA Reader using 570 nm of main-wavelength and 650 nm of sub-wavelength.
The effect of the test compounds was determined as the survival rate of living cells (%) according to the following equation: Survival rate of living cells (%)=[(test compound group−glutamate treated group)÷(control group−glutamate treated group)]×100
That is, the survival rate of living cells after incubation of the control group was converted to 100%, and the survival data of living cells of the tested compounds was shown in Table II.

Compared with `Cc1cc(OCC(=O)N(C)C2CCN(CC(=O)N[C@@H]3C[C@H]3c3ccccc3)CC2)c(C)c(C)c1N` (relative stereo) [Compound 66], `CCN(C(=O)COc1cc(C)c(N)c(C)c1C)C1CCN(CC(=O)Nc2ccccc2)CC1` [Compound 71, 2-(4-Amino-2,3,5-trimethylphenoxy)-N-[1-(2-anilino-2-oxyethyl)-4-piperidinyl]-N-ethylacetamide] is higher in “Survival Rate (%) (Compound: 1 μM)” value: 60% for the first, 89% for the second.

`Cc1cc(OC(C)(C)C(=O)NC2CCN(C[C@@H]3C[C@H]3c3ccccc3)CC2)c(C)c(C)c1N` (relative stereo) [Compound 99, 2-(4-Amino-2,3,5-trimethylphenoxy)-2-methyl-N-[1-(trans-2-phenyl-1-cyclopropylmethyl)-4-piperidinyl]propamide] and `Cc1cc(OC(C)C(=O)NC2CCN(C[C@@H]3C[C@H]3c3ccccc3)CC2)c(C)c(C)c1N` (relative stereo) [Compound 106, 2-(4-Amino-2,3,5-trimethylphenoxy)-N-[1-(trans-2-phenyl-1-cyclopropylmethyl)-4-piperidinyl]propamide] are the same in “Survival Rate (%) (Compound: 1 μM)” value: 151% for the first, 151% for the second.

Compared with `Cc1cc(N)c(NCC(=O)N(C)C2CCN(C[C@@H]3C[C@H]3c3ccccc3)CC2)cc1C` (relative stereo) [Compound 137, 2-(2-Amino-4-5-dimethylanilino)-N-methyl-N-[1-(trans-2-phenyl-1-cyclopropylmethyl)-4-piperidinyl]acetamide], `Cc1c(C)c(NCC(=O)N(C)C2CCN(CC3(c4ccccc4)CC3)CC2)c(C)c(C)c1N` [Compound 70, 2-(4-Amino-2,3,5,6-tetramethylanilino)-N-methyl-N-[1-(1-phenyl-1-cyclopropane)methyl-4-piperidinyl]acetamide] is higher in “Survival Rate (%) (Compound: 1 μM)” value: 71% for the first, 88% for the second.

First: Cc1cc(OC(C)(C)C(=O)N(C)C2CCN(CCc3ccccc3)CC2)c(C)c(C)c1N [Compound 38, 2-(4-Amino-2,3,5-trimethylphenoxy)-2-methyl-N-methyl-N-[1-(2-phenethyl)-4-piperidinyl]propamide]
Second: Cc1cc(OC(C)(C)C(=O)N(C)C2CCN(C/C=C/c3ccccc3)CC2)c(C)c(C)c1N [Compound 67, 2-(4-Amino-2,3,5-trimethylphenoxy)-2-methyl-N-methyl-N-{1-(3-phenyl-2-(E)-propenyl)-4-piperidinyl]propamide]
The “Survival Rate (%) (Compound: 1 μM)” value of the first is higher: 114% for the first, 69% for the second.

First: Cc1c(C)c(NCC(=O)N(C)C2CCN(CC(=O)Nc3ccccc3)CC2)c(C)c(C)c1N [Compound 41, 2-(4-Amino-2,3,5,6-tetramethylanilino)-N-[1-(2-anilino-2-oxyethyl)-4-piperidinyl]-N-methylacetamide]
Second: CCN(C(=O)C(C)Oc1cc(C)c(N)c(C)c1C)C1CCN(CC(=O)Nc2ccccc2)CC1 (centres unmarked) [Compound 75, 2-(4-Amino-2,3,5-trimethylphenoxy)-N-[1-(2-anilino-2-oxyethyl)-4-piperidinyl]-N-ethylpropamide]
The “Survival Rate (%) (Compound: 1 μM)” value of the first is lower: 86% for the first, 96% for the second.

First: Cc1cc(OCC(=O)N(C)C2CCN(CC(=O)Nc3cccc(Cl)c3C)CC2)c(C)c(C)c1N [Compound 45, 2-(4-Amino-2,3,5-trimethylphenoxy)-N-[1-(2-(3-chloro-2-methyl)anilino-2-oxyethyl)-4-piperidinyl]-N-methylacetamide]
Second: Cc1cc(OC(C)(C)C(=O)N(C)C2CCN(CC(=O)Nc3cccc(Cl)c3C)CC2)c(C)c(C)c1N [Compound 48, 2-(4-Amino-2,3,5-trimethylphenoxy)-2-methyl-N-[1-(2-(3-chloro-2-methyl)anilino-2-oxyethyl)-4-piperidinyl]-N-methylpropamide]
The “Survival Rate (%) (Compound: 1 μM)” value of the first is lower: 190% for the first, 207% for the second.

Compared with `Cc1cc(OCC(=O)N(C)C2CCN(CC(=O)Nc3ccccc3C(C)(C)C)CC2)c(C)c(C)c1N` [Compound 46, 2-(4-Amino-2,3,5-trimethylphenoxy)-N-[1-(2-(2-tert-butyl)anilino-2-oxyethyl)-4-piperidinyl]-N-methylacetamide], `Cc1cc(OC(C)C(=O)N(C)C2CCN(CC(=O)Nc3ccccc3C(C)(C)C)CC2)c(C)c(C)c1N` (centres unmarked) [Compound 60, 2-(4-Amino-2,3,5-trimethylphenoxy)-N-[1-(2-(2-tert-butylanilino)-2-oxyethyl)-4-piperidinyl]-N-methylpropamide] is lower in “Survival Rate (%) (Compound: 1 μM)” value: 101% for the first, 60% for the second.

First: Cc1cc(OC(C)(C)C(=O)N(C)C2CCN(CC(=O)Nc3ccccc3C(C)(C)C)CC2)c(C)c(C)c1N [Compound 49, 2-(4-Amino-2,3,5-trimethylphenoxy)-2-methyl-N-[1-(2-tert-butylanilino-2-oxyethyl)-4-piperidinyl]-N-methylpropamide]
Second: Cc1cc(OC(C)(C)C(=O)N(C)C2CCN(CC(=O)Nc3c(C)cccc3C)CC2)c(C)c(C)c1N [Compound 50, 2-(4-Amino-2,3,5-trimethylphenoxy)-2-methyl-N-[1-(2-(2,6-dimethyl)anilino-2-oxyethyl)-4-piperidinyl]-N-methyl-propamide]
The “Survival Rate (%) (Compound: 1 μM)” value of the first is higher: 193% for the first, 54% for the second.

Compared with `Cc1cc(OC(C)C(=O)N(C)C2CCN(CC(=O)Nc3c(C)cccc3C)CC2)c(C)c(C)c1N` (centres unmarked) [Compound 61, 2-(4-Amino-2,3,5-trimethylphenoxy)-N-[1-(2-(2,6-dimethylanilino)-2-oxyethyl)-4-piperidinyl]-N-methylpropamide], `Cc1cc(OC(C)C(=O)N(C)C2CCN(C/C=C/c3ccccc3)CC2)c(C)c(C)c1N` (centres unmarked) [Compound 62, 2-(4-Amino-2,3,5-trimethylphenoxy)-N-methyl-N-[1-(3-phenyl-2-(E)-propenyl)-4-piperidinyl]propamide] is higher in “Survival Rate (%) (Compound: 1 μM)” value: 58% for the first, 63% for the second.

First: Cc1cc(OCC(=O)N(C)C2CCN(CC(O)COc3ccccc3)CC2)c(C)c(C)c1N (centres unmarked) [Compound 65, 2-(4-Amino-2,3,5-trimethylphenoxy)-N-methyl-N-[1-(2-hydroxy-3-phenoxy)propyl-4-piperidinyl]acetamide]
Second: Cc1cc(OC(C)(C)C(=O)N(C)C2CCN(CC3(c4ccccc4)CC3)CC2)c(C)c(C)c1N [Compound 68, 2-(4-Amino-2,3,5-trimethylphenoxy)-2-methyl-N-methyl-N-[1-(1-phenyl-1-cyclopropane)methyl-4-piperidinyl]propamide]
The “Survival Rate (%) (Compound: 1 μM)” value of the first is lower: 73% for the first, 75% for the second.

Compared with `Cc1cc(OC(C)(C)C(=O)N(C)C2CCN(CC(=O)NC3(c4ccccc4)CC3)CC2)c(C)c(C)c1N` [Compound 69, 2-(4-Amino-2,3,5-trimethylphenoxy)-2-methyl-N-methyl-N-[1-(2-(1-phenylcyclopropyl)amino-2-oxyethyl)-4-piperidinyl]propamide], `Cc1cc(OC(C)(C)C(=O)N(C)C2CCN(CC(=O)Nc3cc(Cl)c(N)cc3Cl)CC2)c(C)c(C)c1N` [Compound 79, 2-(4-Amino-2,3,5-trimethylphenoxy)-2-methyl-N-[1-(2-(4-amino-2,5-dichloro)anilino-2-oxyethyl)-4-piperidinyl]-N-methylpropamide] is higher in “Survival Rate (%) (Compound: 1 μM)” value: 68% for the first, 79% for the second.

In the case of `CCN(C(=O)C(C)Oc1cc(C)c(N)c(C)c1C)C1CCN(C/C=C/c2ccccc2)CC1` (centres unmarked) [Compound 77, 2-(4-Amino-2,3,5-trimethylphenoxy)-N-ethyl-N-[1-(3-phenyl-2-(E)-propenyl)-4-piperidinyl]propamide], the “Survival Rate (%) (Compound: 1 μM)” value was 111%.

Same assay, conditions: compound 1 μM added 24 h before 1 mM glutamate, fetal rat cerebral cortex cells, control group = 100%, read-out: Survival Rate (%) (Compound: 1 μM)

Compared with `CCN(C(=O)CNc1c(C)c(C)c(N)c(C)c1C)C1CCN(C[C@@H]2C[C@H]2c2ccccc2)CC1` (relative stereo) [Compound 94, 2-(4-Amino-2,3,5,6-tetramethylanilino)-N-ethyl-N-[1-(trans-2-phenyl-1-cyclopropylmethyl)-4-piperidinyl]acetamide], `CCN(C(=O)CNc1c(C)c(C)c(N)c(C)c1C)C1CCN(C/C=C/c2ccccc2)CC1` [Compound 78, 2-(4-Amino-2,3,5,6-tetramethylanilino)-N-ethyl-N-[1-(3-phenyl-2-(E)-propenyl)-4-piperidinyl]acetamide] is lower in viability at 1 µM: 198% for the first, 96% for the second.

Going from `Cc1cc(OCC(=O)NC2CCN(C[C@@H]3C[C@H]3c3ccccc3)CC2)c(C)c(C)c1N` (relative stereo) [Compound 95, 2-(4-Amino-2,3,5-trimethylphenoxy)-N-[1-(trans-2-phenyl-1-cyclopropylmethyl)-4-piperidinyl]acetamide] to `Cc1cc(OCC(=O)N(C)C2CCN(C/C=C/c3ccccc3)CC2)c(C)c(C)c1N` [Compound 53, 2-(4-Amino-2,3,5-trimethylphenoxy)-N-methyl-N-[1-(3-phenyl-2-(E)-propenyl)-4-piperidinyl]acetamide], the viability at 1 µM rises from 61% to 144%.

Compared with `Cc1cc(OCC(=O)N(C)C2CCN(Cc3ccc4ccccc4n3)CC2)c(C)c(C)c1N` [Compound 44, 2-(4-Amino-2,3,5-trimethylphenoxy)-N-methyl-N-[1-(2-quinolylmethyl)-4-piperidinyl]acetamide], `CCN(C(=O)COc1cc(C)c(N)c(C)c1C)C1CCN(C/C=C/c2ccccc2)CC1` [Compound 74, 2-(4-Amino-2,3,5-trimethylphenoxy)-N-ethyl-N-[1-(3-phenyl-2-(E)-propenyl)-4-piperidinyl]acetamide] is lower in viability at 1 µM: 93% for the first, 87% for the second.
